# Assay results taken from patent US20220105150A1, “AMPHIPATHIC ALPHA-HELICAL ANTIMICROBIAL PEPTIDES TREAT INFECTIONS BY GRAM-NEGATIVE PATHOGENS” (priority 2019, published 2022).
# B1: random coil control peptide (RC) (peptide)
# peptide: Ac-ELEKGGLEGEKGGKELEK-NH2
# What was measured:
# [1] = tested on: Acinetobacter baumannii isolates resistant to classical antibiotics; assay type: cell-based
# Source text: Thus, shortening the number of carbon atoms between the side-chain amino group and the α-carbon atom from four (Lys) to one (diaminopropionic acid) had very little effect on antibacterial activity (Table 2). We also determined the antibacterial activity of our five AMPs against 20 additional Acinetobacter baumannii isolates from four continents, 12 different countries and 17 different cities that were resistant to 18 different antibiotics. […] Thus, it is very clear that changing the type of positively-charged residue on the polar face of these AMPs had very little effect on the antibacterial activities.
# [2] = tested on: Acinetobacter baumannii strains resistant to Polymyxin B and Colistin; conditions: Mueller-Hinton medium, 37° C., 24 h
# A. baumannii strain 649 = assay type: cell-based, Acinetobacter baumannii; conditions: MH medium, no serum
# Experimental: Hemoglobin release was determined spectrophotometrically at 570 nm.
# Because only unbound AMP is available to interact with the therapeutic target, the extent of binding between AMPs and serum proteins can have significant effects on efficacy of these drugs. […] This assay estimates the in vivo bioavailability of our AMPs. […] An increase in MIC in the presence of serum is attributed to inhibition of antimicrobial activity due to binding to serum proteins.
# [3] = target: the molecule itself; test: RP-HPLC temperature profiling (self-association)
Molecule,MIC 101887 ([1]; strain 101887 (lower line)) [µM],MIC 961997 ([1]; strain 961997 (lower line)) [µM],MIC 963618 ([1]; strain 963618 (lower line)) [µM],MIC 964304 ([1]; strain 964304 (lower line)) [µM],MIC 977751 ([1]; strain 977751 (lower line)) [µM],MIC 981653 ([1]; strain 981653 (lower line)) [µM],MIC 1002956 ([1]; strain 1002956 (lower line)) [µM],MIC 1007660 ([1]; strain 1007660 (lower line)) [µM],MIC 1010282 ([1]; strain 1010282 (lower line)) [µM],MIC 1035166 ([1]; strain 1035166 (lower line)) [µM],MIC MB9941 ([2]; strain MB9941) [µM],MIC MB9949 ([2]; strain MB9949) [µM],MIC MB9951 ([2]; strain MB9951) [µM],MIC MB9952 ([2]; strain MB9952) [µM],MIC MB9953 ([2]; strain MB9953) [µM],MIC MB9955 ([2]; strain MB9955) [µM],MIC MB9963 ([2]; strain MB9963) [µM],MIC No serum (A. baumannii strain 649) [µM],binding result [3]
"CC(=O)N[C@H](CCCCN)C(=O)N[C@H](CC(C)C)C(=O)N[C@H](CCCN)C(=O)N[C@H](CO)C(=O)N[C@H](CC(C)C)C(=O)N[C@H](CC(C)C)C(=O)N[C@H](CCCN)C(=O)N[C@@H](C(=O)N[C@H](CC(C)C)C(=O)N[C@H](CO)C(=O)N[C@H](CCCN)C(=O)N[C@H](C)C(=O)N[C@H](C)C(=O)N[C@H](C)C(=O)N[C@H](C)C(=O)N[C@H](C)C(=O)N[C@H](CC(C)C)C(=O)N[C@H](CCCN)C(=O)N[C@@H](C(=O)N[C@H](CC(C)C)C(=O)N[C@H](CC(C)C)C(=O)N[C@H](CCCN)C(=O)N[C@H](C)C(=O)N[C@H](CC(C)C)C(=O)N[C@H](CO)C(=O)N[C@H](CCCN)C(N)=O)[C@H](C)O)[C@H](C)O [D85(K13A/K16A)-(Lys^1-6Orn-1), Ac-KL(Orn)SLL(Orn)TLS(Orn)AAAAAL(Orn)TLL(Orn)ALS(Orn)-amide]",3.0,1.5,1.5,1.5,6.0,1.5,1.5,1.5,1.5,1.5,2.9,2.9,1.5,1.5,1.5,1.5,2.9,1.5,
B1,,,,,,,,,,,,,,,,,,,no binding
